# Key:
# physchem = conditions: thermodynamic from solid
# [1] = Initial pH stability of Naloxone hydrochloride in 10 mM buffers pH 3.0-10.6, 7 days (concentration, pH, Noroxymorphone by HPLC); assay type: physicochemical
# Description: FIG. 3 is a graph that depicts the concentration of Naloxone in various buffers at t=0 and t=7. The t=7 represents samples stored at either 40° C. or 60° C. for up to 7 days. […] The 15 mg/ml was chosen for pH stability studies and a final formulation of Naloxone is planned to be at 10 mg/ml strength. The maximum possible solubility of drug substance at various buffers will be performed in a “pH solubility” study. […] Naloxone precipitated in solution maintained at pH 7.4-10.6. The glycine-sodium hydroxide buffer system fared slightly better, however not as well as the buffers that maintained pH at 3.0-6.5. It is likely that buffer strength higher than 10 mM is required for pH 7.0-11 buffer systems. […] Based on the pKa values, solubility of Naloxone is expected to be higher at lower pH conditions.
# FIG. 4 is a graph that depicts the change in pH of Naloxone in various buffers t=0 and t=7. The t=7 represents samples stored at either 40° C. or 60° C. for up to 7 days. FIG. 4 follows the change in pH for the buffered naloxone samples as a function of time and temperature of storage. It appears that higher pH instability and higher temperature degradations are concerns for Naloxone formulations. Optimum buffering of Naloxone appears to occur at pH 3-4.6; at the molarity tested.
# FIG. 5 is a graph that depicts pH-stability of Naloxone after 7 days at room temperature by showing Naloxone and Noroxymorphone concentrations in various buffers assayed by HPLC. Temperature and duration of sample storage are at ambient temperature for 7 days.
# FIG. 6 is a graph that depicts pH-stability of Naloxone after 7 days at 40° C. and 75% relative humidity by showing Naloxone and Noroxymorphone concentrations in various buffers assayed by HPLC. Temperature and duration of sample storage are at 40° C. and 75% relative humidity for 7 days. FIG. 6 follows up on the conclusions drawn from the experiment conducted that underlies FIG. 5. Raising the temperature incudes greater formation of Noroxymorphone, and this effect is more pronounced in formulations with a higher pH.
# FIG. 7 is a graph that depicts pH-stability of Naloxone after 7 days at 60° C. by showing Naloxone and Noroxymorphone concentrations in various buffers assayed by HPLC. Temperature and duration of sample storage are at 60° C. and humidity was not maintained for 7 days. At even higher temperatures, Noroxymorphone was detected in all formulations across all respective pHs.
# Buffers used in intramuscular formulations range from 1-100 mM, but lower molar strengths are known to cause less myotoxicity resulting in less “pain” at the site of injection (Napaporn et al., Pharm. Dev. Technol. 5(1): 123-30 (2000). For the purpose of these initial pH stability experiment, a buffer strength of 10 mM was chosen. Buffers tested ranged from pH 3.0-10.6. Intramuscular formulations below pH 3.0 are extremely rare, owing to excessive acidity which can cause a burning sensation. Table 1 lists the various buffer systems used for this study.
# Buffers were created and mixed to a concentration of 10 mM with the pH stabilized. […] Buffers tested ranged from pH 3.0-10.6. Intramuscular formulations below pH 3.0 are rare due to discomfort associated with the injection site.
# [2] = pH-stability with and without buffering agents under nitrogen gas overlay / excipient compatibility study; assay type: physicochemical
# Description: FIG. 16 is a graph showing pH fluctuations in samples under nitrogen gas overlay, specifically change in pH of Naloxone solutions in water and buffers at pH 3.0 and 4.6 on Day 0 and Day 7. The Day 7 represents samples stored at either room temperature, 40° C. and 75% relative humidity or 60° C. or 25° C. and 60% relative humidity (in amber vials) for up to 7 days.
# Samples prepared for pH-Stability of naloxone with and without buffering agents (citrate and acetate at pH 3.0 and pH 4.6 respectively) under nitrogen gas overlay were left at 40° C.±2° C./75%±5% relative humidity (RH) and at 60° C. for a total of 5 weeks for this excipient compatibility study. A stability storage chamber was used for 40° C.±2° C./75%±5% while a regular oven was used for the 60° C. samples. Briefly, naloxone samples were prepared in 20 ml of water for injection or freshly prepared 10 mM citrate buffer and/or acetate buffer in 25 ml volumetric flask. […] The pH of the naloxone solutions was adjusted to 3.0 and 4.6 with 0.1N HCl solution. Samples were diluted up to the 25 ml mark with water for injection or citrate buffer pH 3.0 or acetate buffer pH 4.6. These naloxone solutions were filtered using 0.22 μm, 13 mm, PVDF (Pall scientific) syringe filters and pH of the filtrate was measured. The filtered solution was aliquoted into 2.0 ml clear, sterile, Type-I glass vials and closed with 13 mm red rubber closures crimped with aluminum blue flip cap seals. All vials were overlaid with nitrogen gas (filtered with 0.22u PTFE, Acro®50 Vent In-Line filter, Pall scientific) before sealing and stored at 40° C.±2° C./75%±5% relative humidity (RH) or 60° C. for 5 weeks. These samples were evaluated for pH, assay and impurities of naloxone at intervals of T=0, 1 week and T=5 weeks. […] These samples were analyzed at T=2 weeks and T=5 weeks for pH, assay and impurities for naloxone. […]
# The pH and assay of naloxone for excipient compatibility samples stored at 40° C.±2° C./75%±5% RH and 60° C. on T=0-day, 1 week and T=5 weeks were evaluated.
smiles,measurement,setting,value
"C=CCN1CC[C@]23c4c5ccc(O)c4O[C@H]2C(=O)CC[C@@]3(O)[C@H]1C5.Cl [Naloxone hydrochloride, (−)-17-Allyl-4, 5 α-epoxy-3,14-dihydroxymorphinan-6-one hydrochloride]",solubility,"physchem; pH 5, aqueous buffer",204 mg/mL
same,solubility,"physchem; pH 10, aqueous buffer",90.5 mg/mL
same,dissolution at 15 mg/ml in buffer,[1]; 10 mM buffer systems at pH 7.4 (sodium phosphate monobasic/dibasic) and pH 10.6 (carbonate-bicarbonate),did not dissolve efficiently
same,pH of optimum buffering,"[1]; 10 mM buffers, up to 7 days at 40° C. or 60° C.",3-4.6
same,Noroxymorphone detected by HPLC,"[1]; 7 days at ambient temperature, pH 7.4 sodium phosphate and pH 10 glycine buffer versus pH lower than 6.5",Greater amounts of Noroxymorphone were detected
same,Noroxymorphone formation by HPLC,"[1]; citrate buffer at pH 3, 7 days at 60° C.",significantly less Noroxymorphone formation than all of the other formulations tested
same,precipitation in solution,[1]; solution maintained at pH 7.4-10.6,precipitated
same,change in pH,"[2]; 10 mM citrate and acetate buffers at pH 3.0 and 4.6, nitrogen overlay, seven days at room temperature, 40° C./75% RH, 60° C., 25° C./60% RH (amber vials)",no change in pH
same,change in pH,"[2]; without buffers at pH 3.0, nitrogen overlay, seven days at room temperature, 40° C./75% RH, 60° C., 25° C./60% RH (amber vials)",no change in pH
same,change in pH,"[2]; without buffers at pH 4.6, nitrogen overlay, seven days",increased
